Measurements as given in ChEMBL document CHEMBL5550185, “Targeting hTERT Promoter G-Quadruplex DNA Structures with Small-Molecule Ligand to Downregulate hTERT Expression for Triple-Negative Breast Cancer Therapy” (J Med Chem, 2024).

How the values were obtained:
HepG2 = experiment: Cytotoxicity against telomerase-positive human HepG2 cells assessed as inhibition of cell growth incubated for 48 hrs by MTT assay; type: functional, cell-based; settings: HepG2, 48 h
HeLa = experiment: Cytotoxicity against telomerase-positive human HeLa cells assessed as inhibition of cell growth incubated for 48 hrs by MTT assay; type: functional, cell-based
MDA-MB-231 = experiment: Cytotoxicity against telomerase-positive human MDA-MB-231 cells assessed as inhibition of cell growth incubated for 48 hrs by MTT assay; type: functional, cell-based; settings: MDA-MB-231, 48 h
A549 = experiment: Cytotoxicity against telomerase-positive human A549 cells assessed as inhibition of cell growth incubated for 48 hrs by MTT assay; type: functional, cell-based; settings: A549, 48 h
[1] = Cytotoxicity against human HK-2 cells assessed as inhibition of cell growth incubated for 48 hrs by MTT assay; type: toxicity, cell-based
[2] = Cytotoxicity against HUVEC cells assessed as inhibition of cell growth incubated for 48 hrs by MTT assay; type: toxicity, cell-based; settings: human
PC-3 = experiment: Cytotoxicity against telomerase-positive human PC-3 cells assessed as inhibition of cell growth incubated for 48 hrs by MTT assay; type: functional, cell-based; settings: PC-3, 48 h
U2OS = experiment: Cytotoxicity against alternative lengthening of telomere-positive human U2OS cells assessed as inhibition of cell growth incubated for 48 hrs by MTT assay; type: functional, cell-based

| SMILES | IC50 (HepG2) [µM] | IC50 (HeLa) [µM] | IC50 (MDA-MB-231) [µM] | IC50 (A549) [µM] | IC50 at 48 h [1] [µM] | IC50 at 48 h [2] [µM] | IC50 (PC-3) [µM] | IC50 (U2OS) [µM] |
| --- | --- | --- | --- | --- | --- | --- | --- | --- |
| CC1CCN(CCCN2/C(=C/c3cc(/C=C/c4cc5ccccc5[nH]4)[n+](C)c4ccccc34)Sc3ccccc32)CC1 | 5 | 3.1 | 2.6 | 4.3 | 6.3 | 8 | 2.5 | 6.2 |
| C[n+]1c(/C=C/c2c[nH]c3ccccc23)cc(/C=C2\Sc3ccccc3N2CCCN2CCCCC2)c2ccccc21 | 4.5 | 1.8 | 3.1 | 1.7 | 5.4 | 11.9 | 3.8 | 5.1 |
| CCN(CC)CCCN1/C(=C/c2cc(/C=C/c3c[nH]c4ccccc34)[n+](C)c3ccccc23)Sc2ccccc21 | 4.7 | 1.9 | 2.1 | 2.3 | 4.6 | 14.5 | 5.4 | 9.4 |
| CC1CCN(CCCN2/C(=C/c3cc(/C=C/c4c[nH]c5ccccc45)[n+](C)c4ccccc34)Sc3ccccc32)CC1 | 3.2 | 1.9 | 1.9 | 1.7 | 5.5 | 6 | 2.4 | 5.3 |
| CC(C)(C)OO [TERT-BUTYL HYDROPEROXIDE] | – | – | 549 | – | – | – | – | – |
| C[n+]1c(/C=C/c2cc3ccccc3[nH]2)cc(/C=C2\Sc3ccccc3N2CCCN2CCCCC2)c2ccccc21 | 4.5 | 3 | 3.3 | 3.6 | 7.9 | 9.4 | 3.3 | 5 |
| C[n+]1c(/C=C/c2cc3ccccc3[nH]2)cc(/C=C2\Sc3ccccc3N2CCCN2CCOCC2)c2ccccc21 | 5.2 | 4.1 | 6.4 | 5 | 9.5 | 16.6 | 4.8 | 14.8 |
| C[n+]1c(/C=C/c2cc3ccccc3[nH]2)cc(/C=C2\Sc3ccccc3N2CCCN2CCC(C(F)(F)F)CC2)c2ccccc21 | 4.7 | 5.5 | 5.3 | 6.6 | 14.7 | 12 | 3.9 | 9.8 |
| CCN(CC)CCCN1/C(=C/c2cc(/C=C/c3cc4ccccc4[nH]3)[n+](C)c3ccccc23)Sc2ccccc21 | 5.4 | 3.3 | 5.6 | 4.7 | 9.5 | 11.9 | 3.1 | 10.3 |
| C[n+]1c(/C=C/c2c[nH]c3ccccc23)cc(/C=C2\Sc3ccccc3N2CCCN2CCOCC2)c2ccccc21 | 5.8 | 2.3 | 2.9 | 2.1 | 5.8 | 16.5 | 4.7 | 7.8 |
